The NIST ThermoML archive (doi:10.1016/j.jct.2014.01.020)
± gives the expanded uncertainty stated by the source.

Assays:
[1] = Liquid; for mass density: Vibrating tube method; for viscosity: 101 kPa, Concentric cylinders viscometry
[2] = molar heat capacity at constant pressure; conditions: Liquid, Flow calorimetry

C1CCCCC1 [cyclohexane]
Conditions	mass density, [1] [kg/m3]	molar heat capacity at constant pressure, [2] [J/K/mol]
293.15 K, 100 kPa	778.4 ± 0.7	154.7 ± 1.6
293.15 K, 1000 kPa	779.1 ± 0.7	–
293.15 K, 2000 kPa	779.9 ± 0.7	–
293.15 K, 5000 kPa	782.4 ± 0.7	153.8 ± 1.6
293.15 K, 10000 kPa	786.3 ± 0.7	152.5 ± 1.5
293.15 K, 15000 kPa	789.9 ± 0.7	150.5 ± 1.5
293.15 K, 20000 kPa	793.4 ± 0.7	149.7 ± 1.5
293.15 K, 25000 kPa	–	147.7 ± 1.5
303.15 K, 100 kPa	769 ± 0.7	–
303.15 K, 1000 kPa	769.8 ± 0.7	–
303.15 K, 2000 kPa	770.7 ± 0.7	–
303.15 K, 5000 kPa	773.3 ± 0.7	–
303.15 K, 10000 kPa	777.5 ± 0.7	–
303.15 K, 15000 kPa	781.3 ± 0.7	–
303.15 K, 20000 kPa	785.1 ± 0.8	–
303.15 K, 30000 kPa	792.1 ± 0.8	–
303.15 K, 40000 kPa	798.5 ± 0.8	–
313.15 K, 100 kPa	759.7 ± 0.7	–
313.15 K, 1000 kPa	760.3 ± 0.7	–
313.15 K, 2000 kPa	761.2 ± 0.7	–
313.15 K, 5000 kPa	764 ± 0.7	–
313.15 K, 10000 kPa	768.4 ± 0.7	–
313.15 K, 15000 kPa	772.6 ± 0.7	–
313.15 K, 20000 kPa	776.6 ± 0.8	–
313.15 K, 25000 kPa	–	154.6 ± 1.6
313.15 K, 30000 kPa	784.1 ± 0.8	–
313.15 K, 40000 kPa	790.9 ± 0.8	–
323.15 K, 100 kPa	750.1 ± 0.7	–
323.15 K, 1000 kPa	750.8 ± 0.7	–
323.15 K, 2000 kPa	751.8 ± 0.7	–
323.15 K, 5000 kPa	754.8 ± 0.7	–
323.15 K, 10000 kPa	759.5 ± 0.7	–
323.15 K, 15000 kPa	763.9 ± 0.7	–
323.15 K, 20000 kPa	768.2 ± 0.8	–
323.15 K, 30000 kPa	776.1 ± 0.8	–
323.15 K, 40000 kPa	783.2 ± 0.8	–
333.15 K, 100 kPa	740.3 ± 0.7	–
333.15 K, 1000 kPa	741.1 ± 0.7	–
333.15 K, 2000 kPa	742.2 ± 0.7	–
333.15 K, 5000 kPa	745.5 ± 0.7	–
333.15 K, 10000 kPa	750.5 ± 0.7	–
333.15 K, 15000 kPa	755.3 ± 0.7	–
333.15 K, 20000 kPa	759.7 ± 0.8	–
333.15 K, 30000 kPa	768.1 ± 0.8	–
333.15 K, 40000 kPa	775.6 ± 0.8	–

[1]
Conditions	viscosity [mPa·s]
293.15 K	0.98 ± 0.021
303.15 K	0.824 ± 0.018
313.15 K	0.701 ± 0.015
323.15 K	0.593 ± 0.013
333.15 K	0.522 ± 0.012
